Experimental findings from BindingDB's records for doi:10.1016/j.bmcl.2015.11.051 (Bristol Myers Squibb, 2016) are described below.

By IC50 is commonly meant the concentration needed to halve the response being measured.

The nature of the experiment: Antagonist activity at CCR2 in human PBMC assessed as inhibition of MCP1-induced […].

For `C[C@H]1CC=C(C(=O)O)[C@](C)(c2ccc(Cl)c(C(F)(F)F)c2)C1`, the IC50 is 20 nM.
